In patent US20130205659A1, “METHOD OF CONTROLLING FUSARIUM VIGULIFORME AND SOYBEAN SUDDEN DEATH SYNDROME USING THIABENDAZOLE” (SYNGENTA CROP PROTECTION LLC, priority 2010, published 2013):

Test system: Fusarium virguliforme
Experiment: Growth chamber soybean sudden death syndrome seed treatment test, soil inoculated with F. virguliforme spores, visual disease severity rating
Format: in vivo
Details: for reduction in disease severity: seed treatment, versus control; for Sudden death syndrome Disease Severity (1-9): seed treatment (thiabendazole 5 g ai/100 kg seed; 2.5 g fludioxonil + 3.75 g mefenoxam/100 kg seed), averaged across five growth chamber runs, Njiti et al. scale
Source text: Soybean cultivars NK-529-J6 and NK-533-T4 where used for testing. Cultivar NK-529-J6 is labeled as partially resistant to SDS and cultivar NK-533-T4 is labeled susceptible to SDS (Syngenta Seeds, Minneapolis, Minn.). Thiabendazole fungicide seed treatment was applied to both cultivars at a rate of 5 g a.i./100 kg seed. A mefenoxam and fludioxonil combination fungicide seed treatment was also applied at a rate of 3.75 g a.i./100 kg seed and 2.5 g a.i./100kg seed, respectively. Three pathogenic isolates of F. virguliforme (Scherm et al., 1978) were used to inoculate grain sorghum (Sorghum bicolor (L.)) following the methods of Farris Neto et al. (2006). Isolates were grown on one third strength Difco Potato Dextrose Agar (PDA) growth medium. After 18 days, isolate growth on the PDA was divided into thirds and placed into a bag containing 2.27 kg of sorghum seed and allowed to incubate at room temperature for 15 days. Five experiments were conducted in a growth chamber. Each experiment was a randomized complete block design with eight replications. A 1:1 ratio of soil and sand medium was mixed together thoroughly, and steam sterilized at 121° C. for one hour. Upon sterilization of the soil medium 150 g of soil and 2.25 g of yellow cornmeal was weighed and mixed together for each conetainer. A spore suspension was prepared using 17 to 20 day old isolates of F. virguliforme grown on PDA media. Each isolate was aseptically flooded with sterilized, de-ionized water and scraped from the PDA plates causing the release of F. virguliforme spores. Each isolate was then strained through cheesecloth and mixed together to produce the spore suspension. Spore concentrations were determined using a hemacytometer, and concentrations were adjusted to produce 10 000 spores g soil^−1. After the spore concentration was determined the spore suspension was diluted to a volume of 13 ml of spore suspension per conetainer. The soil was then inoculated with the diluted spore suspension (Gongora-Canul and Leandro, 2007). Once the soil was inoculated, conetainers were filled level full with the inoculated soil, and then planted with two seeds of each variety by seed treatment combination (after emergence, thinned to one plant per conetainer) and placed in the growth chamber. Growth chambers were set at 17° C. for one week then changed to 24° C., and maintained for the remainder of the experiment. Growth chambers were set to 17° C. to help slow the germination of the soybean and therefore increase the probability for infection of F. virguliforme to take place (Gongora-Canul and Leandro, 2008). […]
Data collection for the growth chambers consisted of visual disease ratings of SDS symptom severity following the methods of Njiti et al. (1996). […] Disease incidence was recorded as a presence/absence rating.

c1ccc2[nH]c(-c3cscn3)nc2c1 [Thiabendazole, thiabendazole]
reduction in disease severity (soybean cultivar NK-533-T4): 35%
Sudden death syndrome Disease Severity (1-9) (soybean cultivar NK-S29-J6 (partially resistant to SDS)): 0.96
reduction in disease severity (soybean cultivar NK-S29-J6 (printed NK-29-J6)): 25%
Sudden death syndrome Disease Severity (1-9) (soybean cultivar NK-S33-T4 (SDS susceptible), LSD (0.05) 0.39): 1.08
